In one series the target is T1, human CCR-3 (Homo sapiens, UniProt P51677).
T1 construct: expressed in transfected cells; host or cells: rat basophil leukemia (RBL-2H3) cells
T1 sequence (P51677 1-355): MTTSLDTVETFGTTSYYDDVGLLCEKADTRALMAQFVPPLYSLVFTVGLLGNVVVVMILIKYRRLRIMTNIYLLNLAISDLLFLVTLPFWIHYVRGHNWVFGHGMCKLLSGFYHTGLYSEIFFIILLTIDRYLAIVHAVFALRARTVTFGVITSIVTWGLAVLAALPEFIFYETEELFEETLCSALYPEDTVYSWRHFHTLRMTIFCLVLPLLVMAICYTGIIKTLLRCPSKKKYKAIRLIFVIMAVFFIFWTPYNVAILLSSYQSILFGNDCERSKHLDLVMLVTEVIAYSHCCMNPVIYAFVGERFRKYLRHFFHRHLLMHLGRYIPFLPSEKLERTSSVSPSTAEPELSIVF
The experiment in a line: CCR-3 Binding Assay (SPA, [125I]-human eotaxin). The settings on record: membranes of RBL-2H3 cells stably expressing CCR3; 50 pM [125I]-human eotaxin; 4 hours at room temperature; read-out: IC50 (inhibition of binding of human eotaxin to human CCR-3). How it is done:
In this assay the effect of agents of the invention on the binding of human eotaxin to human CCR-3 is determined. Recombinant cells expressing human CCR-3 are captured by wheatgerm agglutinin (WGA) polyvinyltoluidene (PVT) SPA beads (available from Amersham), through a specific interaction between the WGA and carbohydrate residues of glycoproteins on the surface of the cells. [^125I]-human eotaxin (available from Amersham) binds specifically to CCR-3 receptors bringing the [^125I]-human eotaxin in close proximity to the SPA beads. Emitted â-particles from the [^125I]-human eotaxin excite, by its proximity, the fluorophore in the beads and produce light.
Preparation of Assay Buffer: 5.96 g HEPES and 7.0 g sodium chloride are dissolved in distilled water and 1M aqueous CaCl2 (1 mL) and 1M aqueous MgCl2 (5 mL) are added. The pH is adjusted to 7.6 with NaOH and the solution made to a final volume of 1 L using distilled water. 5 g bovine serum albumin and 0.1 g sodium azide are then dissolved in the solution and the resulting buffer stored at 4° C. A Complete™ protease inhibitor cocktail tablet (available from Boehringer) is added per 50 mL of the buffer on the day of use.
Preparation of Homogenisation Buffer: Tris-base (2.42 g) is dissolved in distilled water, the pH of the solution is adjusted to 7.6 with hydrochloric acid and the solution is diluted with distilled water to a final volume of 1L. The resulting buffer is stored at 4° C. A Complete™ protease inhibitor cocktail tablet is added per 50 mL of the buffer on the day of use.
Preparation of membranes: Confluent rat basophil leukemia (RBL-2H3) cells stably expressing CCR3 are removed from tissue culture flasks using enzyme-free cell dissociation buffer and resuspended in phosphate-buffered saline. The cells are centrifuged (800 g, 5 minutes), the pellet resuspended in ice-cold homogenisation buffer using 1 mL homogenisation buffer per gram of cells and incubated on ice for 30 minutes. The cells are homogenised on ice with 10 strokes in a glass mortar and pestle. The homogenate is centrifuged (800 g, 5 minutes, 4° C.), the supernatant further centrifuged (48,000 g, 30 minutes, 4° C.) and the pellet redissolved in Homogenisation Buffer containing 10% (v/v) glycerol. The protein content of the membrane preparation is estimated by the method of Bradford (Anal.Biochem. (1976) 72:248) and aliquots are snap frozen and stored at −80° C. The assay is performed in a final volume of 250 μL per well of an Optiplate (ex Canberra Packard). To selected wells of the Optiplate are added 50 μL of solutions of a test compound in Assay Buffer containing 5% DMSO (concentrations from 0.1 nM to 10 μM). To determine total binding, 50 μL of the Assay Buffer containing 5% DMSO is added to other selected wells. To determine non-specific binding, 50 μL of 100 nM human eotaxin (ex R&D Systems) in Assay Buffer containing 5% DMSO is added to further selected wells. To all wells are added 50 μL [^125I]-Human eotaxin (ex Amersham) in Assay Buffer containing 5% DMSO at a concentration of 250 pM (to give a final concentration of 50 pM per well), 50 μL of WGA-PVT SPA beads in Assay Buffer (to give a final concentration of 1.0 mg beads per well) and 100 μL of the membrane preparation at a concentration of 100 μg protein in Assay Buffer (to give a final concentration of 10 μg protein per well). The plate is then incubated for 4 hours at room temperature. The plate is sealed using TopSeal-S (ex Canberra Packard) according to the manufacturer's instructions. The resulting scintillations are counted using a Canberra Packard TopCount, each well being counted for 1 minute. The concentration of test compound at which 50% inhibition occurs (IC50) is determined from concentration-inhibition curves in a conventional manner.

In series [1] the target is alpha-1 adrenergic receptor. The experiment in a line: alpha-1 adrenergic receptor radioligand binding assay ([125I]-HEAT, rat cerebral cortex membranes). The settings on record: for IC50: [125I]-HEAT 40 pM, 37° C. for 60 min, read-out: IC50 (inhibition of binding of the alpha-1 adrenergic receptor). How it is done: Cerebral cortices from male Sprague-Dawley rats (175-200 g) are dissected and homogenised in 10 volumes of ice cold 0.32 M sucrose (containing 1 mM MgCl2 dihydrate and 1 mM K2HPO4) with a glass/teflon homogeniser. The membranes are centrifuged at 1000×g for 15 min., the pellet discarded and the centrifugation repeated. The supernatants are pooled and centrifuged at 18,000×g for 15 min. The pellet is osmotically shocked in 10 volumes of water and kept on ice for 30 min. The suspension is centrifuged at 39,000×g for 20 min., resuspended in Krebs-Henseleit buffer pH 7.4 (1.17 mM MgSO4 anhydrous, 4.69 mM KCl, 0.7 mM K2HPO4 anhydrous, 0.11M NaCl, 11 mM D-glucose and 25 mM NaHCO3) containing 20 mM Tris, and kept for 2 days at −20° C. The membranes are then thawed at 20-23° C., washed three times with Krebs-Henseleit buffer by centrifugation at 18,000×g for 15 min., left overnight at 4° C. and washed again three times. The final pellet is resuspended with a glass/teflon homogeniser in 125 mL/100 membranes in the same buffer. A sample is taken to determine the protein concentration (using the Bradford Assay with gamma globulin as the standard) and the remainder aliquoted and stored at −80° C.
The resulting membranes are subjected to a radioligand binding assay. […] The plates are incubated at 37° C. for 60 min., after which rapid vacuum filtration over Whatman GF/C 96 well filter plates is carried out. Each plate is then washed three times with 10 ml of ice cold assay buffer using a Brandel Cell harvester (Gaithersburg, Md.). Following drying of the plates for 3 h. at 50° C., 40 μL of Microscint 20 is added to each well, the plates incubated at room temperature for a further 20 min. and the retained radioactivity quantified in a Packard Topcount NXT scintillation counter.
Stock solutions of test compounds are dissolved initially in 100% DMSO and diluted with assay buffer to the required concentrations to yield 1% (v/v) DMSO.

In the case of `N#Cc1cccc(/C=C/C(=O)NCCN2CCC(C(=O)c3ccc(F)cc3)CC2)c1` [Example 1], the 50% inhibitory concentration (IC50) (commonly the midpoint of a concentration-inhibition curve) was 125 nM on human CCR-3 and 210 nM in series [1].

`N#Cc1cccc(/C=C/C(=O)N[C@H](Cc2ccccc2)CN2CCC(C(=O)c3ccc(F)cc3)CC2)c1` [Example 2, (E)-N-{(R)-1-Benzyl-2-[4-(4-fluoro-benzoyl)-piperidin-1-yl]-ethyl}-3-(3-cyano-phenyl)-acrylamide]: the figures for the IC50 (on human CCR-3; in series [1]) were 68 nM and 221 nM, respectively.

In the case of `CCOc1ccc(Br)cc1/C=C/C(=O)N[C@H](Cc1ccccc1)CN1CCC(C(=O)c2ccc(F)cc2)CC1` [Example 4], the IC50 at human CCR-3 stood at 13 nM; in series [1], 94 nM.

As for `COc1ccc(Br)cc1/C=C/C(=O)NCCN1CCC(C(=O)c2ccc(F)cc2)CC1` [Example 7], the IC50 at human CCR-3 worked out at 15 nM; in series [1], 48 nM.

For `COc1ccc(Br)cc1/C=C/C(=O)N[C@H](Cc1cccnc1)CN1CCC(C(=O)c2ccc(F)cc2)CC1` [Example 9], the IC50 on human CCR-3 was 5 nM; in series [1], 58 nM.

`COc1ccc(Br)cc1/C=C/C(=O)NCCN1CCC(C(=O)c2ccc(Cl)cc2)CC1` [Example 13, (E)-3-(5-Bromo-2-methoxy-phenyl)-N-{2-[4-(4-chloro-benzoyl)-piperidin-1-yl]-ethyl}-acrylamide]: the IC50 came out at 26 nM at human CCR-3 and 53 nM in series [1].

For the molecule `CC(C)Oc1ccc(Br)cc1/C=C/C(=O)NCCN1CCC(C(=O)c2ccc(F)cc2)CC1` [Example 20], the IC50 is 8 nM at human CCR-3 and 89 nM in series [1].

As for `N#Cc1cccc(/C=C/C(=O)N[C@H](Cc2ccco2)CN2CCC(C(=O)c3ccc(F)cc3)CC2)c1` [Example 23], the IC50 on human CCR-3 was 10 nM; in series [1], 131 nM.

As to `COc1ccc(Br)cc1/C=C/C(=O)N[C@H](CO)CN1CCC(C(=O)c2ccc(F)cc2)CC1` [Example 25], the IC50 at human CCR-3 was determined as 11 nM; in series [1], 387 nM.

Take `COc1ccc(C#N)cc1/C=C/C(=O)N[C@H](Cc1ccco1)CN1CCC(C(=O)c2ccc(F)cc2)CC1` [Example 28]: the IC50 at human CCR-3 stood at 2 nM; in series [1], 72 nM.

In the case of `COc1ccc(C#N)cc1/C=C/C(=O)N[C@H](Cc1cnc[nH]1)CN1CCC(C(=O)c2ccc(F)cc2)CC1` [Example 30], the figures for the 50% inhibitory concentration (IC50) (on human CCR-3; in series [1]) were 13 nM and 121 nM, respectively.

With `COc1ccc(C#N)cc1/C=C/C(=O)N[C@H](CO)CN1CCC(C(=O)c2ccc(Cl)cc2)CC1` [Example 38, (E)-N-{(S)-2-[4-(4-chloro-benzoyl)-piperidin-1-yl]-1-hydroxymethyl-ethyl}-3-(5-cyano-2-methoxy-phenyl)-acrylamide], the IC50 at human CCR-3 was determined as 14 nM; in series [1], 1520 nM.

With `COc1ccc(Cl)cc1/C=C/C(=O)N[C@H](CO)CN1CCC(C(=O)c2ccc(Cl)cc2)CC1` [Example 40], the results for the IC50 (on human CCR-3; in series [1]) were 6 nM and 215 nM, respectively.

`COc1ccc(Br)cc1/C=C/C(=O)N[C@H](CO)CN1CCC(C(=O)c2ccc(Cl)cc2)CC1` [Example 43]: the figures for the IC50 (at human CCR-3; in series [1]) were 22 nM and 356 nM, respectively.

As to `COc1ccc(C#N)cc1/C=C/C(=O)N[C@H](Cc1ccncc1)CN1CCC(C(=O)c2ccc(F)cc2)CC1` [Example 44], the values for the IC50 (at human CCR-3; in series [1]) were 25 nM and 331 nM, respectively.

As to `COc1ccc(C#N)cc1/C=C/C(=O)N[C@H](CO)CN1CCC(C(=O)c2ccc(Cl)cc2)CC1` [Example 47, (E)-N-{(S)-1-[4-(4-Chloro-benzoyl)-piperidin-1-ylmethyl]-2-hydroxy-ethyl}-3-(5-cyano-2-methoxy-phenyl)-acrylamide], the melting point (in general, the temperature of the solid-liquid transition) was in the range of 162 to 163 °C.

Consider `O=C1c2ccccc2CCC1CNCCc1ccc(O)c(I)c1` (centres unmarked) [[^125I]-HEAT, reference compound], for which the Kd (usually the constant that tells how readily two partners part at equilibrium) in series [1] was found to be 0.0589 ± 0.0187 nM.

(Values after US6670379B2, “Piperidine compounds for use as ccr-3 inhibitors” (Novartis AG, priority 2000, dated 2003).)
